# Test system: MCH receptors
# Experiment: MCH receptor activity class (method not given)
row,class,Structure (SMILES)
1,1,"Cc1ccc(C(=O)N[C@H]2CC[C@@H](Nc3cc(C)c4ccccc4n3)CC2)cc1 [Example 2544, 4-methyl-N-{cis-4-[(4-methylquinolin-2-yl)amino]cyclohexyl}benzamide]"
2,1,"Cc1cc(N[C@H]2CC[C@@H](NC(=O)c3ccc(F)cc3)CC2)nc2ccccc12 [Example 2545, 4-fluoro-N-{cis-4-[(4-methylquinolin-2-yl)amino]cyclohexyl}benzamide]"
3,3,"Cc1cc(N[C@H]2CC[C@@H](NC(=O)c3cccc(C(F)(F)F)c3)CC2)nc2ccccc12 [Example 2546, N-{cis-4-[(4-methylquinolin-2-yl)amino]cyclohexyl}-3-(trifluoromethyl)benzamide]"
4,1,"Cc1cc(N[C@H]2CC[C@@H](NC(=O)c3cccc(Cl)c3)CC2)nc2ccccc12 [Example 2547, 3-chloro-N-{cis-4-[(4-methylquinolin-2-yl)amino]cyclohexyl}benzamide]"
5,1,"Cc1cc(N[C@H]2CC[C@@H](NC(=O)c3cc(C(F)(F)F)cc(C(F)(F)F)c3)CC2)nc2ccccc12 [Example 2548, N-{cis-4-[(4-methylquinolin-2-yl)amino]cyclohexyl}-3,5-bis(trifluoromethyl)benzamide]"
6,1,"COc1cccc(C(=O)N[C@H]2CC[C@@H](Nc3cc(C)c4ccccc4n3)CC2)c1 [Example 2549, 3-methoxy-N-{cis-4-[(4-methylquinolin-2-yl)amino]cyclohexyl}benzamide]"
7,1,"Cc1cc(N[C@H]2CC[C@@H](NC(=O)c3cccc(C#N)c3)CC2)nc2ccccc12 [Example 2550, 3-cyano-N-{cis-4-[(4-methylquinolin-2-yl)amino]cyclohexyl}benzamide]"
8,1,"Cc1cc(N[C@H]2CC[C@@H](NC(=O)COc3ccc(Cl)cc3)CC2)nc2ccccc12 [Example 2551, 2-(4-chlorophenoxy)-N-{cis-4-[(4-methylquinolin-2-yl)amino]cyclohexyl}acetamide]"
9,1,"COc1cc(C(=O)N[C@H]2CC[C@@H](Nc3cc(C)c4ccccc4n3)CC2)cc(OC)c1OC [Example 2552, 3,4,5-trimethoxy-N-{cis-4-[(4-methylquinolin-2-yl)amino]cyclohexyl}benzamide]"
10,1,"COc1cc(OC)cc(C(=O)N[C@H]2CC[C@@H](Nc3cc(C)c4ccccc4n3)CC2)c1 [Example 2553, 3,5-dimethoxy-N-{cis-4-[(4-methylquinolin-2-yl)amino]cyclohexyl}benzamide]"
11,1,"COc1cccc(OCC(=O)N[C@H]2CC[C@@H](Nc3cc(C)c4ccccc4n3)CC2)c1 [Example 2554, 2-(3-methoxyphenoxy)-N-{cis-4-[(4-methylquinolin-2-yl)amino]cyclohexyl}acetamide]"
12,1,"Cc1cc(N[C@H]2CC[C@@H](NC(=O)[C@H](O)c3cccc(Cl)c3)CC2)nc2ccccc12 [Example 2555, (2R)-2-(3-chlorophenyl)-2-hydroxy-N-{cis-4-[(4-methylquinolin-2-yl)amino]cyclohexyl}acetamide]"
13,1,"Cc1cccc(OCC(=O)N[C@H]2CC[C@@H](Nc3cc(C)c4ccccc4n3)CC2)c1 [Example 2556, 2-(3-methylphenoxy)-N-{cis-4-[(4-methylquinolin-2-yl)amino]cyclohexyl}acetamide]"
14,1,"Cc1cc(N[C@H]2CC[C@@H](NC(=O)c3ccc(Br)o3)CC2)nc2ccccc12 [Example 2557, 5-bromo-N-{cis-4-[(4-methylquinolin-2-yl)amino]cyclohexyl}-2-furamide]"
15,2,"Cc1cc(N[C@H]2CC[C@@H](NC(=O)Nc3ccc(OCc4ccccc4)cc3)CC2)nc2ccccc12 [Example 2558, N-[4-(benzyloxy)phenyl]-N′-{cis-4-[(4-methylquinolin-2-yl)amino]cyclohexyl}urea]"
16,1,"Cc1cc(N[C@H]2CC[C@@H](NC(=O)Nc3ccc(Oc4ccccc4)cc3)CC2)nc2ccccc12 [Example 2559, N-{cis-4-[(4-methylquinolin-2-yl)amino]cyclohexyl}-N′-(4-phenoxyphenyl)urea]"
17,2,"Cc1cc(N[C@H]2CC[C@@H](NC(=O)Nc3cccc(Oc4ccccc4)c3)CC2)nc2ccccc12 [Example 2560, N-{cis-4-[(4-methylquinolin-2-yl)amino]cyclohexyl}-N′-(3-phenoxyphenyl)urea]"
18,1,"Cc1cc(N[C@H]2CC[C@@H](NC(=O)Nc3ccccc3Oc3ccccc3)CC2)nc2ccccc12 [Example 2561, N-{cis-4-[(4-methylquinolin-2-yl)amino]cyclohexyl}-N′-(2-phenoxyphenyl)urea]"
19,1,"Cc1cccc(C(=O)N[C@H]2CC[C@@H](Nc3ncc(C)c(N(C)C)n3)CC2)c1 [Example 2562, N-(cis-4-{[4-(dimethylamino)-5-methylpyrimidin-2-yl]amino}cyclohexyl)-3-methylbenzamide]"

row,class,Structure (SMILES)
1,1,"COc1cccc(C(=O)N[C@H]2CC[C@@H](Nc3ncc(C)c(N(C)C)n3)CC2)c1 [Example 2563, N-(cis-4-{[4-(dimethylamino)-5-methylpyrimidin-2-yl]amino}cyclohexyl)-3-methoxybenzamide]"
2,1,"COc1cccc(C(=O)N[C@H]2CC[C@@H](Nc3nc(C)cc(N(C)C)n3)CC2)c1 [Example 2564, N-(cis-4-{[4-(dimethylamino)-6-methylpyrimidin-2-yl]amino}cyclohexyl)-3-methoxybenzamide]"
3,1,"Cc1ccc(C(=O)N[C@H]2CC[C@@H](Nc3nc(C)cc(N(C)C)n3)CC2)cc1 [Example 2565, N-(cis-4-{[4-(dimethylamino)-6-methylpyrimidin-2-yl]amino}cyclohexyl)-4-methylbenzamide]"
4,1,"Cc1cc(N(C)C)nc(N[C@H]2CC[C@@H](NC(=O)c3ccc(Cl)cc3)CC2)n1 [Example 2566, 4-chloro-N-(cis-4-{[4-(dimethylamino)-6-methylpyrimidin-2-yl]amino}cyclohexyl)benzamide]"
5,1,"Cc1cc(N(C)C)nc(N[C@H]2CC[C@@H](NC(=O)c3cccc(Cl)c3)CC2)n1 [Example 2567, 3-chloro-N-(cis-4-{[4-(dimethylamino)-6-methylpyrimidin-2-yl]amino}cyclohexyl)benzamide]"
6,1,"Cc1cc(N(C)C)nc(N[C@H]2CC[C@@H](NC(=O)c3ccc(F)c(F)c3)CC2)n1 [Example 2568, N-(cis-4-{[4-(dimethylamino)-6-methylpyrimidin-2-yl]amino}cyclohexyl)-3,4-difluorobenzamide]"
7,3,"Cc1cc(N(C)C)nc(N[C@H]2CC[C@@H](NC(=O)c3ccc(OC(F)(F)F)cc3)CC2)n1 [Example 2569, N-(cis-4-{[4-(dimethylamino)-6-methylpyrimidin-2-yl]amino}cyclohexyl)-4-(trifluoromethoxy)benzamide]"
8,1,"Cc1cc(N(C)C)nc(N[C@H]2CC[C@@H](NC(=O)c3ccc(F)cc3)CC2)n1 [Example 2570, N-(cis-4-{[4-(dimethylamino)-6-methylpyrimidin-2-yl]amino}cyclohexyl)-4-fluorobenzamide]"
9,1,"Cc1cc(N(C)C)nc(N[C@H]2CC[C@@H](C(=O)NCc3cccc(I)c3)CC2)n1 [Example 2571, cis-4-{[4-(dimethylamino)-6-methylpyrimidin-2-yl]amino}-N-(3-iodobenzyl)cyclohexanecarboxamide]"
10,1,"Cc1cc(N(C)C)nc(N[C@H]2CC[C@@H](C(=O)NCc3ccc(Cl)cc3Cl)CC2)n1 [Example 2572, cis-N-(2,4-dichlorobenzyl)-4-{[4-(dimethylamino)-6-methylpyrimidin-2-yl]amino}cyclohexanecarboxamide]"
11,1,"Cc1cc(N(C)C)nc(N[C@H]2CC[C@@H](C(=O)NCc3cc(Cl)ccc3Cl)CC2)n1 [Example 2573, cis-N-(2,5-dichlorobenzyl)-4-{[4-(dimethylamino)-6-methylpyrimidin-2-yl]amino}cyclohexanecarboxamide]"
12,1,"Cc1ccc(CNC(=O)[C@H]2CC[C@@H](Nc3nc(C)cc(N(C)C)n3)CC2)cc1 [Example 2574, cis-4-{[4-(dimethylamino)-6-methylpyrimidin-2-yl]amino}-N-(4-methylbenzyl)cyclohexanecarboxamide]"
13,1,"Cc1cc(N(C)C)nc(N[C@H]2CC[C@@H](C(=O)NCc3cc(Cl)cc(Cl)c3)CC2)n1 [Example 2575, cis-N-(3,5-dichlorobenzyl)-4-{[4-(dimethylamino)-6-methylpyrimidin-2-yl]amino}cyclohexanecarboxamide]"
14,1,"COc1cc(CNC(=O)[C@H]2CC[C@@H](Nc3nc(C)cc(N(C)C)n3)CC2)cc(OC)c1 [Example 2576, cis-N-(3,5-dimethoxybenzyl)-4-{[4-(dimethylamino)-6-methylpyrimidin-2-yl]amino}cyclohexanecarboxamide]"
15,1,"Cc1cc(N(C)C)nc(N[C@H]2CC[C@@H](C(=O)NCc3cccc(Cl)c3)CC2)n1 [Example 2577, cis-N-(3-chlorobenzyl)-4-{[4-(dimethylamino)-6-methylpyrimidin-2-yl]amino}cyclohexanecarboxamide]"
16,1,"Cc1cc(N(C)C)nc(N[C@H]2CC[C@@H](C(=O)NCc3cc(C(F)(F)F)cc(C(F)(F)F)c3)CC2)n1 [Example 2578, cis-N-[3,5-bis(trifluoromethyl)benzyl]-4-{[4-(dimethylamino)-6-methylpyrimidin-2-yl]amino}cyclohexanecarboxamide]"
17,1,"COc1cccc(CNC(=O)[C@H]2CC[C@@H](Nc3nc(C)cc(N(C)C)n3)CC2)c1 [Example 2579, cis-4-{[4-(dimethylamino)-6-methylpyrimidin-2-yl]amino}-N-(3-methoxybenzyl)cyclohexanecarboxamide]"
18,1,"Cc1cc(N(C)C)nc(N[C@H]2CC[C@@H](C(=O)NCc3ccc(Cl)cc3)CC2)n1 [Example 2580, cis-N-(4-chlorobenzyl)-4-{[4-(dimethylamino)-6-methylpyrimidin-2-yl]amino}cyclohexanecarboxamide]"
19,1,"Cc1cc(N(C)C)nc(N[C@H]2CC[C@@H](C(=O)NCc3ccc(Cl)c(Cl)c3)CC2)n1 [Example 2581, cis-N-(3,4-dichlorobenzyl)-4-{[4-(dimethylamino)-6-methylpyrimidin-2-yl]amino}cyclohexanecarboxamide]"

# Reference: patent US20050197350A1, “Novel quinoline, tetrahydroquinazoline, and pyrimidine derivatives and methods of treatment related to the use thereof” (TAISHO PHARMACEUTICAL CO., LTD., priority 2003, published 2005)
